# Measured values taken from US8829014B2, “Thiazole and thiophene analogues, and their use in treating autoimmune diseases and cancers” (Board of Supervisors of Louisiana State University and …, priority 2006, dated 2014).
# What was measured:
# [1] = tested on: AP-1; assay: PMA-induced AP-1 luciferase expression in HEK cells; assay type: cell-based; details: for IC50: 6 point dose-response curves, read-out: IC50 concentrations AP-1; for AP-1 % inhibition: four lead compounds, Table 13
# [2] = tested on: carageenan-induced edema; assay: Carrageenan-induced rat paw edema test (anti-inflammatory activity); assay type: in vivo, Sprague-Dawley rats; details: for In vivo inflammation % inhibition: rat paw edema induced by carageenan injection
# Procedure, shortened: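 Sprague-Dawley rats (male and female, 150-250 g), fasted 18 h, given compound orally at 50 mg/kg in 0.1% sodium CMC (alternatively i.v., s.c. or i.p.). 1% carrageenan injected sub-plantar in right hind paw 1 h later. Paw displacement read again 3 h later; % protection = [(Control−Test)/Control]×100 versus saline control.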
# [3] = tested on: cell lines from the prostate, one tumorigenic and one non-tumorigenic; assay: MTT viability in prostate cell line pair, tumorigenic and non-tumorigenic; assay type: cell-based; details: 10 μM, 48 h, tumorigenic vs non-tumorigenic line
# Description: Additional compounds have also been tested for their ability to inhibit both TNF-α-induced NF-κB—expression and PMA-induced AP-1 expression. In both tests, the compound was added for 1 h, then the appropriate inducer was added, and luciferase activity was monitored 24 h later. Values were then normalized to the vehicle control, DMSO. Following the initial luciferase screens, studies were conducted to assess the cytotoxicity of the compounds in normal cells such as VSMC, HUVEC, or HPT cells. Human umbilical vein endothelial cells (HUVEC) represent the normal endothelium, vascular smooth muscle cells (VSMC) were represented by cells from the adult rat aorta, and human proximal tubule (HPT) cells represent the normal proximal tubule in vivo. These cells were grown to near confluency in multi-well plates, and were then treated for 48 h with either vehicle (0.1% DMSO) or 10 μM of each drug candidate. Following treatment, the media from the VSMC and HUVEC incubations were removed, and the amount of lactate dehydrogenase (LDH) released into the medium was determined with a commercial kit. LDH is normally confined to the cytosol, and its release represents “leakiness” of the plasma membrane. LDH activity was expressed as % increase over vehicle-treated cells. […] The number of both live and dead cells was counted using an automated cell viability analyzer. The % decrease in numbers of viable cells was determined. Toxicity in the treated HPT cells was determined by the ethidium homodimer (EthHD) uptake assay. […] Results were expressed as a % increase in cell death over vehicle-treated cells. […] Following treatment, the viability of the cells was determined by the MTT assay. In this assay, the MTT dye is converted only in viable cells by intracellular enzymes to a colorimetric product that is quantitated by a microplate reader.
# For the results in Table 13, cells were grown to near confluency in multi-well plates, then treated for 48 h with either vehicle (0.1% DMSO) or 10 μM of each drug candidate. Following treatment, the media from the VSMC and HUVEC incubations were removed, and the amount of lactate dehydrogenase (LDH) released into the medium was determined with a commercial kit and expressed as a % increase over vehicle-treated cells. HPT toxicity was determined by the ethidium homodimer (EthHD) uptake assay. Inside the cell, EthHD produces a strong fluorescent signal, which is proportional to the amount of cell death, expressed as a % increase in cell death over vehicle-treated cells. […] The cells were treated for 48 h with vehicle (0.1% DMSO) or 10 μM of each drug candidate, and the viability of the cells was determined by the MTT assay, expressed as a % decrease in viability compared to vehicle-treated cells. […]
# [4] = tested on: cell lines from the skin, one tumorigenic and one non-tumorigenic; assay: MTT viability in skin cell line pair, tumorigenic and non-tumorigenic; assay type: cell-based; details: 10 μM, 48 h, MTT; tumorigenic vs non-tumorigenic line
# Description: Additional compounds have also been tested for their ability to inhibit both TNF-α-induced NF-κB—expression and PMA-induced AP-1 expression. In both tests, the compound was added for 1 h, then the appropriate inducer was added, and luciferase activity was monitored 24 h later. Values were then normalized to the vehicle control, DMSO. Following the initial luciferase screens, studies were conducted to assess the cytotoxicity of the compounds in normal cells such as VSMC, HUVEC, or HPT cells. Human umbilical vein endothelial cells (HUVEC) represent the normal endothelium, vascular smooth muscle cells (VSMC) were represented by cells from the adult rat aorta, and human proximal tubule (HPT) cells represent the normal proximal tubule in vivo. These cells were grown to near confluency in multi-well plates, and were then treated for 48 h with either vehicle (0.1% DMSO) or 10 μM of each drug candidate. Following treatment, the media from the VSMC and HUVEC incubations were removed, and the amount of lactate dehydrogenase (LDH) released into the medium was determined with a commercial kit. LDH is normally confined to the cytosol, and its release represents “leakiness” of the plasma membrane. LDH activity was expressed as % increase over vehicle-treated cells. In another assay of viability, the treated VSMC and HUVEC were removed by trypsinization and treated with trypan blue, a dye that is taken up only by dead cells. The number of both live and dead cells was counted using an automated cell viability analyzer. The % decrease in numbers of viable cells was determined. Toxicity in the treated HPT cells was determined by the ethidium homodimer (EthHD) uptake assay. EthHD is a fluorescent dye that is excluded from live cells, but is taken up by cells that have lost permeability barriers. Inside the cell, EthHD produces a strong fluorescent signal, which is proportional to the number of dead cells. Results were expressed as a % increase in cell death over vehicle-treated cells. The lead compounds were also tested in two pairs of cell lines from either the skin or prostate, one tumorigenic and one non-tumorigenic, to test for any differences in toxicity or heightened sensitivity in the tumorigenic lines. The cells were treated for 48 h with vehicle (0.1% DMSO) or 10 μM of each drug candidate. Following treatment, the viability of the cells was determined by the MTT assay. In this assay, the MTT dye is converted only in viable cells by intracellular enzymes to a colorimetric product that is quantitated by a microplate reader.
# For the results in Table 13, cells were grown to near confluency in multi-well plates, then treated for 48 h with either vehicle (0.1% DMSO) or 10 μM of each drug candidate. Following treatment, the media from the VSMC and HUVEC incubations were removed, and the amount of lactate dehydrogenase (LDH) released into the medium was determined with a commercial kit and expressed as a % increase over vehicle-treated cells. HPT toxicity was determined by the ethidium homodimer (EthHD) uptake assay. Inside the cell, EthHD produces a strong fluorescent signal, which is proportional to the amount of cell death, expressed as a % increase in cell death over vehicle-treated cells. The lead compounds were also tested in two pairs of cell lines from the skin or prostate, one tumorigenic and one non-tumorigenic, to test for differing toxicity or heightened sensitivity in the tumorigenic lines. The cells were treated for 48 h with vehicle (0.1% DMSO) or 10 μM of each drug candidate, and the viability of the cells was determined by the MTT assay, expressed as a % decrease in viability compared to vehicle-treated cells. The in vivo inflammation model measured the % inhibition of rat paw edema induced by carageenan injection.
# [5] = tested on: NF-κB; assay: TNF-α-induced NF-κB-dependent luciferase expression in HEK cells; assay type: cell-based; design: NF-κB % inhibition: concentration or dose not given beside the values; details: for NF-κB % inhibition: four lead compounds, Table 13
# [6] = tested on: AP-1; assay: AP-1 inhibitor screen: basal AP-1-dependent luciferase expression in HEK/AP-1 cell line; assay type: cell-based
# Procedure, shortened: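 HEK293 cells stably carrying a luciferase reporter driven by three AP-1 elements were plated 24 hr, then given compound at 1.0 μM in 0.3% DMSO for 48 hr, in triplicate. Basal expression without stimulus was read as luminescence (Brite-Glo), normalized to DMSO; dose-response runs repeated two to four times.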
# [7] = tested on: eIF4E; assay: eIF4E inhibitor screen: luciferase under FGF 5′UTR in FaDu cells (highly cap-dependent translation); assay type: cell-based; details: for luciferase expression under the control of the FGF 5′UTR: 1.0 μM, 48 h, FaDu UTR cells, normalized to DMSO (FIG. 8)
# Source text: Since highly cap-dependent translation is associated with synthesis of proteins involved in cancer, a compound that inhibits this pathway may be used as an anti-cancer agent. The assay was developed by cloning the highly structured 5′ UTR of FGF, which requires high levels of eIF4E before protein synthesis can initiate, into the proper orientation of the reporter gene luciferase, and then stably transfecting the modified luciferase gene into the cell line FaDu that is known to have high levels of eIF4E. The activity of luciferase is then monitored in the presence and absence of the tested compound.
# Generation of Stable Cell Lines: The pMS110 plasmid (pGL3-control plasmid from Promega which contains a neo selectable marker) was used to generate pMS110-5′UTR by cloning the 5′ UTR of FGF just upstream of the luciferase AUG start codon. FaDu cells, a head and neck cancer cell line, were transfected using Lipofectamine2000 (Invitrogen). Twenty-four hours after transfection G418 was added at 500 μg/ml. Cells were maintained in G418 for 14 days, and then individual colonies were transferred to a 96-well plate for propagation. Individual clones were analyzed for luciferase expression by plating 10^4 cells per well in a 96-well plate for 24 hours before lysing the cells and analyzing for luciferase activity in a Victor III (Perkin Elmer) or Lucy2 (Rosys Anthos). FaDu9000 and FaDuUTR were the clones that expressed the highest level of active luciferase following transfection of pMS110 and pMS110-5′UTR, respectively.
# Analysis of Rapamycin Responsiveness: Cells of FaDu9000 and FaDuUTR were plated at 1×10^4 cells/well in a 96-well dish. Twenty-four hours after plating, 0.1% DMSO (vehicle control) or 10 nM rapamycin were added to each well, and the cells were maintained for an additional 24 or 48 hours. The cells were then lysed and luciferase activity was determined using BriteGlo (Promega) as per manufacturer's instruction and recorded using the Victor III. Following subtraction of background activity, the mean value of quadruplicate samples for a given experiment was determined, and the treated cells were normalized to the control. At least four separate experiments were conducted, and the mean and standard error were calculated. To determine if rapamycin affected cell viability, an MTS assay (Cell Proliferation One Solution, Promega) was carried out on each population at 48 hours in two separate experiments.
# The FaDu cell line stably transfected with FGF 5′UTR was used to screen thirty-nine representative compounds, each at a concentration of 1.0 μM. Additional cells were treated with vehicle, 0.3% DMSO. Cells were plated for twenty-four hours in a 96-well plate. Each compound was then added to triplicate wells, and the cells were incubated for forty-eight hours before measuring luciferase activity as above. The mean luciferase activity was measured using Promega's Brite-Glo kit, and the mean for each sample was normalized to DMSO. The experiment was then repeated, and the average and standard deviation of the two experiments were determined (FIG. 8).
# [8] = tested on: NF-κB; assay: NF-κB inhibitor screen: basal NF-κB-dependent luciferase expression in HEK/NF-κB cell line; assay type: cell-based
# Procedure, shortened: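 HEK293 cells stably carrying a luciferase reporter under six NF-κB elements were treated with compound, unstimulated, 24 h after plating. Compounds were first tested at 1.0 μM (0.3% DMSO), later at six doses from 10 to 3300 nM, in triplicate. Brite-Glo luciferase signal was normalized to DMSO, or to the lowest dose for dose-response runs.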
# [9] = tested on: FaDu cells; assay type: cell-based; details: MTT, 24 hr, 10 nM to 3.3 μM (FIG. 9)
# Source text: […]. Values greater than 1.0 indicate activation, and values less than 1.0 indicate inhibition.) The compounds that inhibited luciferase translation might, potentially, act by generally inhibiting translation, by reducing cell numbers through inhibition of growth or by cell toxicity, or specifically by inhibiting highly cap-dependent translation. To analyze any general effects on cell viability, fourteen compounds were selected that altered luciferase activity (including a few that increased activity) to test for any effects on cell number. An MTT assay was used to monitor compounds for inhibition of cell growth and cell toxicity. The compounds were tested once in a six-point dose-response assay starting at 10 nM and increasing to 3.3 μM. FaDu cells were plated in a 96-well plate for 24 hr before addition of the compounds. Each compound was added in each of six concentrations (10 nM, 30 nM, 100 nM, 330 nM, 1000 nM, and 3300 nM), and each concentration was tested in triplicate. In addition, DMSO was used as a control. After incubating for 24 hr, the cell number was measured using the MTT assay.
Compound,IC50 [1],AP-1 % inhibition [1],In vivo inflammation % inhibition [2],Differential Toxicity* Prostate [3],Differential Toxicity* Skin [4],luciferase expression under the control of the FGF 5′UTR [7],NF-κB % inhibition [5],also measured
CNc1nc(-c2ccccc2)c(-c2nc3ccccc3c(=O)n2-c2ccccc2OC)s1 [PMCR 75],200 nM,90%,56%,Normal,Both,,,"IC50 ([5]; 6 point dose-response curves, read-out: IC50 concentrations NF-κB): 500 nM"
"CCOC(=O)Nc1nc(-c2ccccc2)c(-c2nc3ccccc3c(=O)n2-c2ccccc2)s1 [Example 159, [5-(4-Oxo-3-phenyl-3,4-dihydro-quinazolin-2-yl)-4-phenyl-thiazol-2-yl]-carbamic acid ethyl ester]",,,,,,increased luciferase expression,,"inhibition in vivo at 50 mg/kg ([2]; po, 3 h, carrageenan-induced rat paw edema, defined in Example 397, read-out: % Protection): 75%; inhibition at 1 µM ([6]; AP1, 1 uM, determined as described in Example 398): 7%; inhibition at 1 µM ([8]; 1 uM, determined as described in Example 398, read-out: NFkB inhibition @ 1 uM): 80%"
CC(=O)c1ccc(-n2c(-c3cc(-c4ccncc4)c(N4CCOCC4)s3)nc3ccccc3c2=O)cc1 [PMCR 242],5000 nM,84%,80%,Cancer,Neither,,66%,inflammation in the in vivo assay ([2]; rat paw edema): strongly inhibited inflammation
COc1ccc(C(=O)c2sc(Nc3ccc(Cl)cc3)nc2-c2ccncc2)cc1 [Example 116],,,,,,inhibited luciferase expression,,"basal AP-1-dependent luciferase expression ([6]; 1.0 μM, 48 hr screen of 39 compounds (FIG. 13)): almost complete inhibition; inhibition of luciferase activity (FGF 5′UTR) ([7]; highest concentration tested): greater than 90%; inhibition of highly cap-dependent translation (summary statement) ([7]; summary in the disclosure): capable of inhibiting; FaDu cell number / growth / viability [9]: inhibited cell numbers at each concentration tested; basal NF-κB-dependent luciferase, six-point dose response ([8]; 10 nM-3300 nM (FIG. 12)): robust inhibition; inhibition of basal NF-κB-dependent luciferase expression ([8]; 3.3 μM (FIG. 12)): about 50%; inhibition of NF-κB (summary statement) ([8]; summary in the disclosure): capable of inhibiting"
Cc1ccccc1-n1c(-c2sc(Nc3ccccc3)nc2C)nc2ccccc2c1=O [PMCR 20],,73%,42%,Cancer,Neither,,21%,
Cc1nc(Nc2ccc(Cl)cc2)sc1-c1nc2ccccc2c(=O)n1-c1ccccc1Cl [PMCR 120],,27%,58%,Both,Cancer,,,
